Structures are written as SMILES.

The results in this text go back to patent US20250325677A1, “STAT6 DEGRADERS” (Gilead Sciences, Inc., priority 2024, published 2025).

The target of one test is STAT6 (Homo sapiens (Human), UniProt P42226). Description: STAT6 degrader assay (HiBiT, HeLa LgBiT clone 4.14). To be noted: HeLa LgBiT clone 4.14, 4-24 h; geometric mean; given for compounds with >80% Emax; read-out: STAT6 degradation DC50. In kind it is cell-based. In a few lines: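 DC50 (nM) comes from luminescence of non-degraded STAT6 read 0.5 h after Nano-GLO addition, following 4-24 h compound exposure at 37° C. Cells were HeLa clone 4.14 expressing LgBiT with a CRISPR HiBiT tag on endogenous STAT6; 50 μM terfenadine set full degradation.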
STAT6, sequence (P42226 whole entry): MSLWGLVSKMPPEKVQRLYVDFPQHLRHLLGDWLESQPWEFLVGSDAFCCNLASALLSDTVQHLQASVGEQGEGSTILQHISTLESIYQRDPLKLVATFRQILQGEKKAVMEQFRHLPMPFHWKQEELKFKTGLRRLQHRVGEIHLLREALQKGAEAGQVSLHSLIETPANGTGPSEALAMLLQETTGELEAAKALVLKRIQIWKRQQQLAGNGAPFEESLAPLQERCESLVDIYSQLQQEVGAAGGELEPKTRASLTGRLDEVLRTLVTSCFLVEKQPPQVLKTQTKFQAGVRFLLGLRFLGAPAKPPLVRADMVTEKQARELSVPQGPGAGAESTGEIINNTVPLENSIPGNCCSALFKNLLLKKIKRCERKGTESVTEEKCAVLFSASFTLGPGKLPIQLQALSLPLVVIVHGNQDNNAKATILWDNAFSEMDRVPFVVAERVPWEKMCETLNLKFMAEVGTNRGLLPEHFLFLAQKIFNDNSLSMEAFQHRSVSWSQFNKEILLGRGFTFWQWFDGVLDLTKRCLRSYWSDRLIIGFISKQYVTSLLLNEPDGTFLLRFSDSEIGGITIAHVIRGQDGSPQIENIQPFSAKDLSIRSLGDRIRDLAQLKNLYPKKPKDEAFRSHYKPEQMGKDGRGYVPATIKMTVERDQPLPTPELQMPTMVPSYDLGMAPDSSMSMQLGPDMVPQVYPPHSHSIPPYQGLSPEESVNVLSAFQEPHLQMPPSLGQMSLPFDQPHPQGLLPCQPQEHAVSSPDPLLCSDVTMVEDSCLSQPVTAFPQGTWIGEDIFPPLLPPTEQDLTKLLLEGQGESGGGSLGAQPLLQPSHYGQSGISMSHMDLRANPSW
Background: With HiBiT, luminescence reflects the tagged protein that the partner subunit can reach.
What is called DC50 is the concentration at which degradation of the target reaches its halfway point. Take `COCc1nc2cc(-c3ccnc4c3cc(CN3CCC(c5ccc(C(=O)N(C)c6ccc(C7CCN(Cc8ccc9c(c8)oc(=O)n9C8CCC(=O)NC8=O)CC7)cc6)cc5)CC3)n4C)ccc2[nH]1` (centres unmarked) [Example 3n4, N-(4-(1-((3-(2,6-dioxopiperidin-3-yl)-2-oxo-2,3-dihydrobenzo[d]oxazol-6-yl)methyl)piperidin-4-yl)phenyl)-4-(1-((4-(2-(methoxymethyl)-1H-benzo[d]imidazol-5-yl)-1-methyl-1H-pyrrolo[2,3-b]pyridin-2-yl)methyl)piperidin-4-yl)-N-methylbenzamide]: the DC50 was determined as 0.1 nM.

The test is the same for the next values; noted with them: HeLa LgBiT clone 4.14, 4-24 h; read-out: STAT6 degradation Emax (%).
In general, Emax refers to the greatest response seen or fitted, relative to the assay's reference. With `COCc1nc2cc(-c3ccnc4c3cc(CN3CCC(c5ccc(C(=O)N6CCC(CN7CCN(Cc8ccc9c(c8)n(C8CCC(=O)NC8=O)c(=O)n9C)CC7)CC6)cc5)CC3)n4C)ccc2[nH]1` (centres unmarked) [Example 3o1, 3-(6-((4-((1-(4-(1-((4-(2-(methoxymethyl)-1H-benzo[d]imidazol-5-yl)-1-methyl-1H-pyrrolo[2,3-b]pyridin-2-yl)methyl)piperidin-4-yl)benzoyl)piperidin-4-yl)methyl)piperazin-1-yl)methyl)-3-methyl-2-oxo-2,3-dihydro-1H-benzo[d]imidazol-1-yl)piperidine-2,6-dione], the Emax was below 20%.

For `Cn1c(CN2CCC(c3ccc(C(=O)N4CCC(CN5CCN(Cc6ccc7c(c6)n(C6CCC(=O)NC6=O)c(=O)n7C)CC5)CC4)cc3)CC2)cc2c(-c3ccc(N)nc3)ccnc21` (centres unmarked) [Example 3o2, 3-(6-((4-((1-(4-(1-((4-(6-aminopyridin-3-yl)-1-methyl-1H-pyrrolo[2,3-b]pyridin-2-yl)methyl)piperidin-4-yl)benzoyl)piperidin-4-yl)methyl)piperazin-1-yl)methyl)-3-methyl-2-oxo-2,3-dihydro-1H-benzo[d]imidazol-1-yl)piperidine-2,6-dione], the Emax is below 20%.

With `Cn1c(CN2CCC(c3ccc(C(=O)N4CCC(CN5CCC(c6cccc7c6n(C)c(=O)n7C6CCC(=O)NC6=O)CC5)CC4)cc3)CC2)cc2c(-c3ccc4[nH]ncc4c3)ccnc21` (centres unmarked) [Example 3t1, 3-(4-(1-((1-(4-(1-((4-(1H-indazol-5-yl)-1-methyl-1H-pyrrolo[2,3-b]pyridin-2-yl)methyl)piperidin-4-yl)benzoyl)piperidin-4-yl)methyl)piperidin-4-yl)-3-methyl-2-oxo-2,3-dihydro-1H-benzo[d]imidazol-1-yl)piperidine-2,6-dione], the Emax is below 20%.

With `Cn1c(CN2CCC(c3ccc(C(=O)N4CCC(Cn5cc(-c6cccc7c6n(C)c(=O)n7C6CCC(=O)NC6=O)nn5)CC4)cc3)CC2)cc2c(-c3ccc4[nH]ncc4c3)ccnc21` (centres unmarked) [Example 3t2, 3-(4-(1-((1-(4-(1-((4-(1H-indazol-5-yl)-1-methyl-1H-pyrrolo[2,3-b]pyridin-2-yl)methyl)piperidin-4-yl)benzoyl)piperidin-4-yl)methyl)-1H-1,2,3-triazol-4-yl)-3-methyl-2-oxo-2,3-dihydro-1H-benzo[d]imidazol-1-yl)piperidine-2,6-dione], the Emax was below 20%.

In another test the test system is eotaxin-3 release. Description: Human whole blood eotaxin-3 assay (IL-4 stimulated). Type of test: cell-based. To be noted: human whole blood, IL-4 0.4 nM, 48 hours; geometric mean; given for compounds with >80% Emax; read-out: Eotaxin-3 EC50. The procedure:
Human Whole Blood Eotaxin-3 Assay
This was a human whole blood assay using recombinant human Interleukin 4 to stimulate the blood and measuring the ability of the test compounds to inhibit eotaxin-3 release. Compounds or media were added to the wells and incubated together with human whole blood for 120 minutes at 37° C. Subsequently, recombinant IL-4 was added at a final concentration of 0.4 nM. The plates were incubated for 48 hours.
Test compounds which inhibited eotaxin-3 release upon stimulation with human IL-4 (E. coli) interfered with the signaling in human whole blood are expected to have activity in human beings. […] The EC50 value indicates at which concentration test compounds were active and in inhibiting the eotaxin-3 release. As eotaxin-3 release is down-stream of STAT6 signaling both STAT6 inhibitors and STAT6 degraders are active in this assay.
The data from the human whole blood eotaxin-3 assay is shown below for Examples 3e27, 3e50, 3e17, and 3e51 (where the effect in % is plotted against the test concentration in M on a log-scale).
Broadly, the EC50 is the midpoint of the concentration-response curve. As for `CC[C@H]1CN(Cc2ccc3c(c2)n(C)c(=O)n3[C@@H]2CCC(=O)NC2=O)CCN1CC1CCN(C(=O)c2ccc(C3CCN([C@@H](C)c4cc5c(-c6ccc(N)nc6)ccnc5n4C)CC3)cc2)CC1` (single isomer, unassigned) [Example 3e57], the EC50 came out at 4.4 nM.

As to `CC[C@H]1CN(Cc2ccc3c(c2)n(C)c(=O)n3[C@H]2CCC(=O)NC2=O)CCN1CC1CCN(C(=O)c2ccc(C3CCN([C@@H](C)c4cc5c(-c6ccc(N)nc6)ccnc5n4C)CC3)cc2)CC1` (single isomer, unassigned) [Example 3e59], the EC50 was found to be 8.4 nM.

In the case of `CNc1ccc(-c2ccnc3c2cc([C@H](C)N2CC=C(c4c(C)cc(C(=O)N5CCC(CN6CCN(Cc7ccc8c(c7)C7(CC7)C(=O)N8C7CCC(=O)NC7=O)C[C@@H]6C)CC5)cc4F)CC2)n3C)cn1` (stereo partly drawn) [Example 3h20, 3-(5′-(((S)-4-((1-(3-fluoro-5-methyl-4-(1-((S)-1-(1-methyl-4-(6-(methylamino)pyridin-3-yl)-1H-pyrrolo[2,3-b]pyridin-2-yl)ethyl)-1,2,3,6-tetrahydropyridin-4-yl)benzoyl)piperidin-4-yl)methyl)-3-methylpiperazin-1-yl)methyl)-2′-oxospiro[cyclopropane-1,3′-indolin]-1′-yl)piperidine-2,6-dione], the EC50 is 3.6 nM.

With `C[C@H]1CN(Cc2ccc3c(c2)C2(CC2)C(=O)N3C2CCC(=O)NC2=O)CCN1CC1CCN(C(=O)c2ccc(C3CCN([C@@H](C)c4cc5c(-c6ccc(N)nc6)ccnc5n4C)CC3)cc2)CC1` (stereo partly drawn) [Example 3h29, 3-(5′-(((S)-4-((1-(4-(1-((S)-1-(4-(6-aminopyridin-3-yl)-1-methyl-1H-pyrrolo[2,3-b]pyridin-2-yl)ethyl)piperidin-4-yl)benzoyl)piperidin-4-yl)methyl)-3-methylpiperazin-1-yl)methyl)-2′-oxospiro[cyclopropane-1,3′-indolin]-1′-yl)piperidine-2,6-dione], the EC50 was 2.6 nM.

`C[C@H]1CN(Cc2cc3c(cc2F)N(C2CCC(=O)NC2=O)C(=O)C3(C)C)CCN1CC1CCN(C(=O)c2ccc(C3CCN([C@@H](C)c4cc5c(-c6ccc(N)nc6)ccnc5n4C)CC3)cc2)CC1` (stereo partly drawn) [Example 3h35, 3-(5-(((S)-4-((1-(4-(1-((S)-1-(4-(6-aminopyridin-3-yl)-1-methyl-1H-pyrrolo[2,3-b]pyridin-2-yl)ethyl)piperidin-4-yl)benzoyl)piperidin-4-yl)methyl)-3-methylpiperazin-1-yl)methyl)-6-fluoro-3,3-dimethyl-2-oxoindolin-1-yl)piperidine-2,6-dione]: the EC50 worked out at 31.7 nM.

In the case of `CNc1ccc(-c2ccnc3c2cc([C@H](C)N2CC=C(c4c(F)cc(C(=O)N5CCC(CN6CCN(Cc7ccc8c(c7)C7(CC7)C(=O)N8C7CCC(=O)NC7=O)C[C@@H]6C)CC5)cc4F)CC2)n3C)cn1` (stereo partly drawn) [Example 3h36, 3-(5′-(((S)-4-((1-(3,5-difluoro-4-(1-((S)-1-(1-methyl-4-(6-(methylamino)pyridin-3-yl)-1H-pyrrolo[2,3-b]pyridin-2-yl)ethyl)-1,2,3,6-tetrahydropyridin-4-yl)benzoyl)piperidin-4-yl)methyl)-3-methylpiperazin-1-yl)methyl)-2′-oxospiro[cyclopropane-1,3′-indolin]-1′-yl)piperidine-2,6-dione], the 50% effective concentration (EC50) came out at 8.3 nM.

In the case of `CNc1ccc(-c2ccnc3c2cc(CN2CC=C(c4c(F)cc(C(=O)N5CCC(CN6CCN(Cc7ccc8c(c7)C7(CC7)C(=O)N8C7CCC(=O)NC7=O)C[C@@H]6C)CC5)cc4F)CC2)n3C)cn1` (stereo partly drawn) [Example 3h37, 3-(5′-(((S)-4-((1-(3,5-difluoro-4-(1-((1-methyl-4-(6-(methylamino)pyridin-3-yl)-1H-pyrrolo[2,3-b]pyridin-2-yl)methyl)-1,2,3,6-tetrahydropyridin-4-yl)benzoyl)piperidin-4-yl)methyl)-3-methylpiperazin-1-yl)methyl)-2′-oxospiro[cyclopropane-1,3′-indolin]-1′-yl)piperidine-2,6-dione], the 50% effective concentration (EC50) turned out to be 95.5 nM.

For `C[C@@H](c1cc2c(-c3ccc(N)nc3)ccnc2n1C)N1CCC(c2ccc(C(=O)N3CCC(CN4CCN(c5cc6c(cc5F)n(C5CCC(=O)NC5=O)c(=O)n6C)CC4)CC3)cc2)CC1` (stereo partly drawn) [Example 3h44, 3-(5-(4-((1-(4-(1-((S)-1-(4-(6-aminopyridin-3-yl)-1-methyl-1H-pyrrolo[2,3-b]pyridin-2-yl)ethyl)piperidin-4-yl)benzoyl)piperidin-4-yl)methyl)piperazin-1-yl)-6-fluoro-3-methyl-2-oxo-2,3-dihydro-1H-benzo[d]imidazol-1-yl)piperidine-2,6-dione], the EC50 came out at 19.4 nM.

Turning to `CNc1ccc(-c2ccnc3c2cc([C@H](C)N2CC=C(c4c(C)cc(C(=O)N5CCC(CN6CCN(c7cc8c(cc7F)n(C7CCC(=O)NC7=O)c(=O)n8C)CC6)CC5)cc4F)CC2)n3C)cn1` (stereo partly drawn) [Example 3h45, 3-(6-fluoro-5-(4-((1-(3-fluoro-5-methyl-4-(1-((S)-1-(1-methyl-4-(6-(methylamino)pyridin-3-yl)-1H-pyrrolo[2,3-b]pyridin-2-yl)ethyl)-1,2,3,6-tetrahydropyridin-4-yl)benzoyl)piperidin-4-yl)methyl)piperazin-1-yl)-3-methyl-2-oxo-2,3-dihydro-1H-benzo[d]imidazol-1-yl)piperidine-2,6-dione], the EC50 came to 6.7 nM.

With `C[C@H]1CN(c2ccc3c(c2)C2(CC2)C(=O)N3C2CCC(=O)NC2=O)CCN1CC1CCN(C(=O)c2ccc(C3CCN([C@@H](C)c4cc5c(-c6ccc(N)nc6)ccnc5n4C)CC3)cc2)CC1` (stereo partly drawn) [Example 3h46, 3-(5′-((S)-4-((1-(4-(1-((S)-1-(4-(6-aminopyridin-3-yl)-1-methyl-1H-pyrrolo[2,3-b]pyridin-2-yl)ethyl)piperidin-4-yl)benzoyl)piperidin-4-yl)methyl)-3-methylpiperazin-1-yl)-2′-oxospiro[cyclopropane-1,3′-indolin]-1′-yl)piperidine-2,6-dione], the EC50 came to 230 nM.

The same test, now with this note: human whole blood, hIL-4 (E. coli) stimulation; read-out: EC50 of inhibition of eotaxin-3 release (reference compound).
As for `CCCS(=O)(=O)N[C@H]1C[C@@H](N(C)c2ncnc3[nH]ccc23)C1` [abroticinib, abrocitinib, reference compound], the EC50 is around 450 nM.

The test is the same for the next values; noted with them: human whole blood, hIL-4 (E. coli) stimulation; read-out: Emax of inhibition of eotaxin-3 release.
As for `CCCS(=O)(=O)N[C@H]1C[C@@H](N(C)c2ncnc3[nH]ccc23)C1` [abroticinib, abrocitinib, reference compound], the Emax was around 100%.
